# Molecular target: T1, m1 muscarinic receptors (Homo sapiens, UniProt P11229)
# T1 construct: expressed in transfected cells; host or cells: CHO (Chinese Hamster Ovary) cells, membranes
# T1 sequence (P11229 1-460): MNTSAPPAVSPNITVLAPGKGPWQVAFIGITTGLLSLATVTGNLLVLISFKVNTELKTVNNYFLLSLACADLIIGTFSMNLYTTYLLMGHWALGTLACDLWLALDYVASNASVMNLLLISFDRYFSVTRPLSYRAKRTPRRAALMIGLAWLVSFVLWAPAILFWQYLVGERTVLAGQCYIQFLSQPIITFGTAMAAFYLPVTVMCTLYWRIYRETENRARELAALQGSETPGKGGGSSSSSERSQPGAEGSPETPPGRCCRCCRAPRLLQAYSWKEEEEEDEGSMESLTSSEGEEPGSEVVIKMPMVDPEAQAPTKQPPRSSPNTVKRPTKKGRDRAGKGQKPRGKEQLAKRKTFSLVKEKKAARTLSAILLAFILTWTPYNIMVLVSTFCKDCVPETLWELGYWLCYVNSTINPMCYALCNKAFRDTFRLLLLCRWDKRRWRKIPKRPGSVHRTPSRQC
# Test: Effect on ACh binding: ACh inhibition of 3H-NMS binding (indirect assay) on CHO cell membranes
# Conditions: tested at 3 μg/ml; 0.15 nM 3H-NMS, 30 μM ACh, 0.2 mM GTP, pH 7.4, 30° C., two hours
# Description: The compounds of the present invention may be assayed for allosteric activity at m1 muscarinic receptors as described below, although the assays we describe are not necessarily exhaustive, and other assays may be employed, as desired, to establish allosterism.
# A suitable cell line is CHO (Chinese Hamster Ovary), which are readily engineered to express only one receptor sub-type.
# To obtain the large amount of cell membranes required, plates of 530 cm^2 culture area were used. CHO cells which express m1, m2, m3 and m4 receptors were grown separately in MEM alpha medium containing 10% newborn calf serum and antibiotics. When cells reached confluence, they were washed twice with 10 ml of 20 mM HEPES containing 10 mM EDTA (pH 7.4), scraped into the same buffer and homogenized using a Polytron (trademark) homogenizer (setting 5-6 for 5 sec×2). Membrane pellets were obtained by centrifugation (40000×g, 10 min, 4° C.) and resuspended in 20 mM HEPES-0.1 mM EDTA (pH 7.4). Centrifugation and resuspension were repeated twice to wash the cell membranes. After measurement of membrane protein, the membranes (1 or 2 mg protein/ml) were stored at -70° C.
# While the direct assay measures ACh (=acetylcholine) binding only to the high affinity state, the indirect assay measures effects only at the low affinity state. This is achieved by including 0.2 mM GTP in the assay. In this assay a fixed concentration of ^3 H-NMS (roughly the Kd value) is incubated in the absence and presence of a fixed concentration of ACh (at about the IC50 value) and the effects of three concentrations of test agent are measured, again in the absence and presence of ACh.
# Calculating the effects on ^3 H-NMS binding alone is as follows: binding in the presence of the agent is expressed as a percentage of binding in its absence and, if the effect is inhibitory, an IC50 is estimated graphically. The assay also contains a single high concentration of ^3 H-NMS (4 nM, about 30 times the Kd) which provides an estimate of Bmax (i.e. maximum binding).
# Expressing the effect on cold ACh binding will be explained with reference to FIGS. 1a, b and c. These figures show theoretical data and the effects of the transformations described below. In FIGS. 1a and 1b ^3 H-NMS and cold ACh are present at their Kd concentrations; in FIG. 1a the agent has a negative allosteric effect on ^3 H-NMS, while in FIG. 1b it has a positive allosteric effect on ^3 H-NMS. The left panels show the amount of ^3 H-NMS specifically bound in the assay. If the affinity of ACh is reduced by the test agent, as shown in the top panels of FIGS. 1a and 1b, the inhibition by ACh will decrease, but the counts recovered will also depend on the effect of the agent on ^3 H-NMS binding alone. To calculate the effect on ACh binding the inhibitory effect of ACh is first calculated as a percent of its own control in the absence of ACh. Next it is assumed that fractional inhibition is the same as tractional occupancy, and inhibition in the presence of agent is expressed as a percentage of inhibition in the absence of agent. The effects of these transformations are shown in the centre panels. Expressing inhibition by ACh in the presence of agent as a percentage of inhibition in the absence of agent allows the effect of the agent on cold ACh binding to be seen on the same scale as the effect on ^3 H-NMS and ^3 H-ACh binding and is generally preferred.
# If the concentration of ^3 H-NMS used in the indirect assay is around the Kd value or less, the transformation described above provides a qualitative and semi-quantitative measure of the agent's effect. If a higher concentration of ^3 H-NMS is used, or if the agent has a positive allosteric effect on ^3 H-NMS, then the results of this transformation may be misleading. […] It is assumed that ACh binds to a single affinity state i.e. that its inhibition curve has a slope of 1, and so an IC50 is calculated from the percentage inhibition of control binding. […]
row,Structure (SMILES),Effect on ACh Binding
1,"CSc1c(CC(=O)OC(C)(C)C)ccc2c3ccccc3n(Cc3ccc(F)cc3)c12 [Example 8, tert-Butyl [9-(4-fluorobenzyl)-1-methylthiocarbazol-2-yl]acetate]",3.46
2,"CSc1c(CC(=O)O)cc(C(C)C)c2c3ccccc3n(Cc3ccccc3)c12 [Example 190, (9-Benzyl-4-isopropyl-1-methylthiocarbazol-2-yl)acetic Acid]",4.78
3,"O=C(O)Cc1cccc2c1ccn2Cc1ccccc1 [Example 91, (1-Benzylindol-4-yl)acetic acid]",2.76
4,"CSc1c(CC(=O)O)ccc2c3ccccc3n(Cc3ccccc3)c12 [Example 5, (9-Benzyl-1-methylthiocarbazol-2-yl)acetic acid]",2.62
5,"Cc1cc(CC(=O)O)c(OCc2ccccc2)c2c1c1ccccc1n2Cc1ccccc1 [Example 134, (9-Benzyl-1-benzyloxy-4-methylcarbazol-2-yl)acetic Acid]",3.40
6,"O=C(O)Cc1ccc2c3ccccc3n(Cc3cccc(OCc4ccccc4)c3)c2c1 [Example 165, [9-(3-Benzyloxybenzyl)carbazol-2-yl]acetic Acid]",2.24
7,"CSc1c(CC(=O)O)cc(C)c2c3ccccc3n(Cc3cccc(Cl)c3)c12 [Example 145, [9-(3-Chlorobenzyl)-4-methyl-1-methylthiocarbazol-2-yl]acetic Acid]",5.27
8,"CCCSc1c(CC(=O)O)cc(C)c2c3ccccc3n(Cc3ccccc3)c12 [Example 217, (9-Benzyl-4-methyl-1-n-propylthiocarbazol-2-yl)acetic Acid]",3.99
9,"CCCc1cc(CC(=O)O)c(SC)c2c1c1ccccc1n2Cc1ccccc1 [Example 116, (9-Benzyl-1-methylthio-4-propylcarbazol-2-yl)acetic Acid]",3.99
10,"CSc1c(CC(=O)O)cc(C)c2c3ccccc3n(Cc3cccc(F)c3)c12 [Example 141, [9-(3-Fluorobenzyl)-4-methyl-1-methylthiocarbazol-2-yl]acetic Acid]",3.81
11,"CSc1c(C(Cc2ccccc2)C(=O)O)ccc2c3ccccc3n(Cc3ccccc3)c12 (stereo not shown) [Example 17, 2-(9-Benzyl-1-methylthiocarbazol-2-yl)-3-phenylpropionic acid]",2.50
12,"CSc1c(CC(=O)O)ccc2c3ccccc3n(Cc3ccc(Cl)cc3)c12 [Example 7, [9-(4-Chlorobenzyl)-1-methylthiocarbazol-2-yl]acetic acid]",3.55
13,"CSc1c(CC(=O)O)cc(C)c2c3ccccc3n(Cc3ccccc3)c12 [Example 14, (9-Benzyl-4-methyl-1-methylthiocarbazol-2-yl)acetic acid]",3.89
14,"CC(C)Sc1c(CC(=O)O)cc(C(C)C)c2c3ccccc3n(Cc3ccccc3)c12 [Example 235, (9-Benzyl-4-isopropyl-1-isopropylthiocarbazol-2-yl)acetic Acid]",2.82
15,"Cc1c(CCC(=O)O)ccc2c3ccccc3n(Cc3ccccc3)c12 [Example 37, 3-(9-Benzyl-1-methylcarbazol-2-yl)propionic acid]",2.09
16,"Cc1cc(CC(=O)O)c(S(C)(=O)=O)c2c1c1ccccc1n2Cc1ccccc1 [Example 202, (9-Benzyl-1-methylsulfonyl-4-methylcarbazol-2-yl)acetic Acid]",2.66

row,Structure (SMILES),Effect on ACh Binding
1,"CCCSc1c(CC(=O)O)cc(C)c2c3ccccc3n(C)c12 [Example 210, (4,9-Dimethyl-1-propylthiocarbazol-2-yl)acetic Acid]",2.03
2,"CCCc1cc(CC(=O)O)c(SC)c2c1c1ccccc1n2Cc1ccc([N+](=O)[O-])cc1 [Example 176, [1-Methylthio-9-(4-nitrobenzyl)-4-propylcarbazol-2-yl]acetic Acid]",2.08
3,"Cc1cc(CC(=O)O)c(SC(C)C)c2c1c1ccccc1n2Cc1ccccc1 [Example 218, (9-Benzyl-4-methyl-1-i-propylthiocarbazol-2-yl)acetic Acid]",4.91
4,"CSc1c(C(Cc2ccccc2)C(=O)O)cc(C)c2c1[nH]c1ccccc12 (stereo not shown) [Example 15, 2-(4-Methyl-1-methylthiocarbazol-2-yl)-3-phenylpropionic acid]",2.42
5,"CSc1c(CC(=O)O)cc(C(F)(F)F)c2c3ccccc3n(Cc3ccccc3)c12 [Example 231, (9-Benzyl-1-methylthio-4-trifluoromethyl carbazol-2-yl)acetic Acid]",3.78
6,"c1ccc(Cn2c3c(c4ccccc42)CCC(Cc2nnn[nH]2)S3)cc1 (stereo not shown) [Example 84, 5-(9-Benzyl-2,3,4,9-tetrahydrothiopyrano[2,3-b]indol-2-yl)methyltetrazole]",3.30
7,"CSc1c(CC(=O)O)ccc2c1c1ccccc1n2Cc1ccccc1 [Example 233, (9-Benzyl-4-methylthiocarbazol-3-yl)acetic Acid]",2.26
8,"COc1ccc2c(c1)c1c(C)cc(CC(=O)O)c(SC)c1n2Cc1ccccc1 [Example 182, (9-Benzyl-6-methoxy-4-methyl-1-methylthiocarbazol-2-yl)acetic Acid]",2.57
9,"CSc1c(C(Cc2ccc([N+](=O)[O-])cc2)C(=O)O)ccc2c3ccccc3n(Cc3ccc([N+](=O)[O-])cc3)c12 (stereo not shown) [Example 23, 2-[9-(4-Nitrobenzyl)-1-methylthiocarbazol-2-yl]-3-(4-nitrophenyl)propionic acid]",2.72
10,"CSc1c(CC(=O)O)cc(C)c2c3ccccc3n(Cc3ccc(F)cc3)c12 [Example 143, [9-(4-Fluorobenzyl)-4-methyl-1-methylthiocarbazol-2-yl]acetic Acid]",5.36
11,"CSc1c(CC(=O)O)cc(C)c2c3ccccc3n(Cc3ccc(Cl)c(Cl)c3)c12 [Example 149, [9-(3,4-Dichlorobenzyl)-4-methyl-1-methylthiocarbazol-2-yl]acetic Acid]",6.49
12,"O=C(O)CC1CCc2[nH]c3ccccc3c2C1 (stereo not shown) [Example 61, (1,2,3,4-Tetrahydrocarbazol-3-yl)acetic acid]",2.11
13,"O=C(O)CC1CCc2c(n(Cc3ccccc3)c3ccccc23)S1 (stereo not shown) [Example 83, 2-(9-Benzyl-2,3,4,9-tetrahydrothiopyrano[2,3-b]indol-2-yl) acetic acid]",2.08
14,"CSc1c(OCC(=O)O)ccc2c3ccccc3n(Cc3ccccc3)c12 [Example 46, (9-Benzyl-1-methylthiocarbazol-2-yloxy)acetic acid]",2.21
15,"CSc1c(Cc2nnn[nH]2)cc(C)c2c3ccccc3n(Cc3ccc(Cl)c(Cl)c3)c12 [Example 152, 5-[9-(3,4-Dichlorobenzyl)-4-methyl-1-methylthiocarbazol-2-yl]methyl-1H-tetrazole]",2.02

# — patent US5877199A, “Heterocyclic compounds, their preparation and their therapeutic use” (priority 1994, dated 1999)
